The target in this test is hNav1.7 (Homo sapiens, UniProt Q15858). As to the kind of experiment: cell-based. Type of test: cell-based. The note with it: for Wash out: PatchXpress Nav1.7, whether block washes out (Yes/No); for Nav1.4/Nav1.7 / Nav1.5/Nav1.7: ratio of PX tonic IC50 values.

Read-outs that look alike come from different tables or passages of the source.

hNav1.7, sequence (Q15858 whole entry): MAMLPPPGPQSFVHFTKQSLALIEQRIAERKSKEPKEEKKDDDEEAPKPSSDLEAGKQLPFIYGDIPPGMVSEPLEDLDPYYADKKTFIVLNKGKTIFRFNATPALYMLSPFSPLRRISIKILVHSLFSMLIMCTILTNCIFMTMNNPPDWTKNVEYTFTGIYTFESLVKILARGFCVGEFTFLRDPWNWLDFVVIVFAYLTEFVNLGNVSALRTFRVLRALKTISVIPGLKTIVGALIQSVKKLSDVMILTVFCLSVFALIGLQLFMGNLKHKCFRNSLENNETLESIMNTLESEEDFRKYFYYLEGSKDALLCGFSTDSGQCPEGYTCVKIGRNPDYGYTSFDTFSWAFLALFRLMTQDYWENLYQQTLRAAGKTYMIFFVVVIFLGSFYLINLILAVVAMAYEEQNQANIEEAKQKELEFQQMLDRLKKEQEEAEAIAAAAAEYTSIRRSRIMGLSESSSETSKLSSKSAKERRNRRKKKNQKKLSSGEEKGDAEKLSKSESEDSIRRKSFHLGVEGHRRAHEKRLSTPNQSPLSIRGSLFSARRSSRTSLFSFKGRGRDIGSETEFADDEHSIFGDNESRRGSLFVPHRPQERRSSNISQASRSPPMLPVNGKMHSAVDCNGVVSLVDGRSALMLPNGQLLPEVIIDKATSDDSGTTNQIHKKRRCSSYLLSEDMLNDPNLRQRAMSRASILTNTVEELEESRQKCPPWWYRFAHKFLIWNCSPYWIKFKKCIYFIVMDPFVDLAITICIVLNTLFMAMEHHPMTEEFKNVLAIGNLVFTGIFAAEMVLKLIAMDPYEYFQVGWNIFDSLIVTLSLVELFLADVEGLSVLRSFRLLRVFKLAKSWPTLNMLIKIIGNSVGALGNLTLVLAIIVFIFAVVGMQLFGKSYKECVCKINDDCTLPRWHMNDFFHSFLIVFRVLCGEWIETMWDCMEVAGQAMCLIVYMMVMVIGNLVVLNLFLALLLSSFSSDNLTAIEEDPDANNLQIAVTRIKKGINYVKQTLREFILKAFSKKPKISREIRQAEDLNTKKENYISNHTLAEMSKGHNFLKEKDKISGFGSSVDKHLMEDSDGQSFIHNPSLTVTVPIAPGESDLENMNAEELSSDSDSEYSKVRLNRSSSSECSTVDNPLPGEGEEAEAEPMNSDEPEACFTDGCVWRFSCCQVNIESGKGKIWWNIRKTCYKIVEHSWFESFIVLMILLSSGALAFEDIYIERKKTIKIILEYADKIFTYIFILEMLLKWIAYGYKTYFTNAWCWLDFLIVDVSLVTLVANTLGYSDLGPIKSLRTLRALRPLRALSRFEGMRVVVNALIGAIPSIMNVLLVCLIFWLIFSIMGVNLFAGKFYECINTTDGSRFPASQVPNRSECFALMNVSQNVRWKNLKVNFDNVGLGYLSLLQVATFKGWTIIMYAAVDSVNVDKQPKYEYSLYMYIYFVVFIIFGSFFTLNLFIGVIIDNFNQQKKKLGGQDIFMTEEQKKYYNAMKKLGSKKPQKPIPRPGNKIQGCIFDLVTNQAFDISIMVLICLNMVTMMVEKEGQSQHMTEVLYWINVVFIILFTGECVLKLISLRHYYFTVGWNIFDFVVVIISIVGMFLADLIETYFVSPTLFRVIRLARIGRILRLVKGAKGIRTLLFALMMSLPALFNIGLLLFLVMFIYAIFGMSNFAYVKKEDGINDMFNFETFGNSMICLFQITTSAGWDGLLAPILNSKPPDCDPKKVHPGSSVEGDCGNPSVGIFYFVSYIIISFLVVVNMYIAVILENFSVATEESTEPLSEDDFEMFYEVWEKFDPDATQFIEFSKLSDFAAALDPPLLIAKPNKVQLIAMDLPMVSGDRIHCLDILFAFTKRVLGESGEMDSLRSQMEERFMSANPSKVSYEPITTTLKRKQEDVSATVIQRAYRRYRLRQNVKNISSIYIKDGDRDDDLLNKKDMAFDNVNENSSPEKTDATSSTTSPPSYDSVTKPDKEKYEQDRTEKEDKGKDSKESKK

Take `CCCC[C@@H]1NC(=O)[C@H](Cc2c[nH]c3ccccc23)NC(=O)[C@H](CCCCN)NC(=O)[C@H](CCC(N)=O)NC(=O)[C@@H](NC(=O)[C@H](Cc2ccc(O)cc2)NC(=O)[C@@H](N)Cc2cn(CCOCCOCCOCCOCCOCCOCCOCCOCCOCCOCCOCCOCCOCCOCCOCCOCCOCCOCCOCCOCCOCCOCCOCCNC(=O)c3cc(CNC(=O)CSCc4ccccc4)cc(C(=O)NCCOCCOCCOCCOCCOCCOCCOCCOCCOCCOCCOCCOCCOCCOCCOCCOCCOCCOCCOCCOCCOCCOCCOCCn4cc(C[C@H](N)C(=O)N[C@@H](Cc5ccc(O)cc5)C(=O)N[C@H]5CSSC[C@@H]6NC(=O)[C@@H]7CSSC[C@@H](C(=O)N[C@@H](CCCNC(=N)N)C(=O)N[C@@H](CCCCN)C(=O)N[C@H](C(=O)N[C@H](C(N)=O)[C@@H](C)CC)[C@@H](C)CC)NC(=O)[C@H](Cc8c[nH]c9ccccc89)NC(=O)[C@H](CC(C)C)NC(=O)[C@H](CCCCN)NC(=O)[C@H](CSSC[C@H](NC(=O)[C@H]([C@@H](C)O)NC(=O)[C@H](Cc8c[nH]c9ccccc89)NC(=O)[C@H](CCCC)NC(=O)[C@H](Cc8c[nH]c9ccccc89)NC(=O)[C@H](CCCCN)NC(=O)[C@H](CCC(N)=O)NC5=O)C(=O)N[C@@H](CC(=O)O)C(=O)N[C@@H](CO)C(=O)N[C@@H](CCCCN)C(=O)N[C@@H](CCCNC(=N)N)C(=O)N[C@@H](C)C(=O)N7)NC(=O)[C@H](CCCNC(=N)N)NC(=O)[C@H](CC(C)C)NC(=O)CNC(=O)[C@H](CCC(=O)O)NC6=O)nn4)c3)nn2)CSSC[C@@H]2NC(=O)[C@@H]3CSSC[C@@H](C(=O)N[C@@H](CCCNC(=N)N)C(=O)N[C@@H](CCCCN)C(=O)N[C@H](C(=O)N[C@H](C(N)=O)[C@@H](C)CC)[C@@H](C)CC)NC(=O)[C@H](Cc4c[nH]c5ccccc45)NC(=O)[C@H](CC(C)C)NC(=O)[C@H](CCCCN)NC(=O)[C@H](CSSC[C@H](NC(=O)[C@H]([C@@H](C)O)NC(=O)[C@H](Cc4c[nH]c5ccccc45)NC1=O)C(=O)N[C@@H](CC(=O)O)C(=O)N[C@@H](CO)C(=O)N[C@@H](CCCCN)C(=O)N[C@@H](CCCNC(=N)N)C(=O)N[C@@H](C)C(=O)N3)NC(=O)[C@H](CCCNC(=N)N)NC(=O)[C@H](CC(C)C)NC(=O)CNC(=O)[C@H](CCC(=O)O)NC2=O` [Homodimeric Peptide No. 2]: the Wash out entry is given as “No”. Besides, the IC50 (as a rule, the concentration that gives 50% inhibition) (read-out: Nav1.7 PX IC50) came out at 0.241 nM.
As for `CCCC[C@@H]1NC(=O)[C@H](Cc2c[nH]c3ccccc23)NC(=O)[C@H](CCCCN)NC(=O)[C@H](CCC(N)=O)NC(=O)[C@@H](NC(=O)[C@H](Cc2ccc(O)cc2)NC(=O)[C@@H](N)Cc2cn(CCOCCOCCOCCOCCOCCOCCOCCOCCOCCOCCOCCOCCOCCOCCOCCOCCOCCOCCOCCOCCOCCOCCOCCNC(=O)c3cc(CN)cc(C(=O)NCCOCCOCCOCCOCCOCCOCCOCCOCCOCCOCCOCCOCCOCCOCCOCCOCCOCCOCCOCCOCCOCCOCCOCCn4cc(C[C@H](N)C(=O)N[C@@H](Cc5ccc(O)cc5)C(=O)N[C@H]5CSSC[C@@H]6NC(=O)[C@@H]7CSSC[C@@H](C(=O)N[C@@H](CCCNC(=N)N)C(=O)N[C@@H](CCCCN)C(=O)N[C@@H](CCC(=O)O)C(=O)N[C@H](C(N)=O)[C@@H](C)CC)NC(=O)[C@H](Cc8c[nH]c9ccccc89)NC(=O)[C@H](CC(C)C)NC(=O)[C@H](CCCCN)NC(=O)[C@H](CSSC[C@H](NC(=O)[C@H]([C@@H](C)O)NC(=O)[C@H](Cc8c[nH]c9ccccc89)NC(=O)[C@H](CCCC)NC(=O)[C@H](Cc8c[nH]c9ccccc89)NC(=O)[C@H](CCCCN)NC(=O)[C@H](CCC(N)=O)NC5=O)C(=O)N[C@@H](CC(=O)O)C(=O)N[C@@H](CO)C(=O)N[C@@H](CCCCN)C(=O)N[C@@H](CCCNC(=N)N)C(=O)N[C@@H](C)C(=O)N7)NC(=O)[C@H](CCCNC(=N)N)NC(=O)[C@H](CC(C)C)NC(=O)CNC(=O)[C@H](CCC(=O)O)NC6=O)nn4)c3)nn2)CSSC[C@@H]2NC(=O)[C@@H]3CSSC[C@@H](C(=O)N[C@@H](CCCNC(=N)N)C(=O)N[C@@H](CCCCN)C(=O)N[C@@H](CCC(=O)O)C(=O)N[C@H](C(N)=O)[C@@H](C)CC)NC(=O)[C@H](Cc4c[nH]c5ccccc45)NC(=O)[C@H](CC(C)C)NC(=O)[C@H](CCCCN)NC(=O)[C@H](CSSC[C@H](NC(=O)[C@H]([C@@H](C)O)NC(=O)[C@H](Cc4c[nH]c5ccccc45)NC1=O)C(=O)N[C@@H](CC(=O)O)C(=O)N[C@@H](CO)C(=O)N[C@@H](CCCCN)C(=O)N[C@@H](CCCNC(=N)N)C(=O)N[C@@H](C)C(=O)N3)NC(=O)[C@H](CCCNC(=N)N)NC(=O)[C@H](CC(C)C)NC(=O)CNC(=O)[C@H](CCC(=O)O)NC2=O` [Homodimeric Peptide No. 7], the Wash out result was “No”.
Take `CC[C@H](C)[C@H](NC(=O)[C@@H](NC(=O)[C@H](CCCCN)NC(=O)[C@H](CCC(=O)O)NC(=O)[C@@H]1CSSC[C@@H]2NC(=O)[C@H](C)NC(=O)[C@H](CCCNC(=N)N)NC(=O)[C@H](CCCCN)NC(=O)[C@H](CO)NC(=O)[C@H](CC(=O)O)NC(=O)[C@@H]3CSSC[C@H](NC(=O)[C@H](CCCNC(=N)N)NC(=O)[C@H](CC(C)C)NC(=O)CNC(=O)[C@H](CCC(=O)O)NC(=O)[C@H](CSSC[C@H](NC(=O)[C@@H](N)Cc4ccc(O)cc4)C(=O)N[C@@H](CCC(N)=O)C(=O)N[C@@H](CCCCN)C(=O)N[C@@H](Cc4c[nH]c5ccccc45)C(=O)N[C@@H](CCSC)C(=O)N[C@@H](Cc4c[nH]c5ccccc45)C(=O)N[C@@H]([C@@H](C)O)C(=O)N3)NC2=O)C(=O)N[C@@H](CCCCN)C(=O)N[C@@H](CC(C)C)C(=O)N[C@@H](Cc2c[nH]c3ccccc23)C(=O)N1)[C@@H](C)CC)C(N)=O` [compound 67]: the IC50 (PatchXpress, tonic, Table 11, read-out: PX hNav1.7 Tonic IC50) was above 1000 nM.
On to `CC[C@H](C)[C@H](NC(=O)[C@H](Cc1ccc(O)cc1)NC(=O)[C@H](CCCCN)NC(=O)[C@H](CCCNC(=N)N)NC(=O)[C@@H]1CSSC[C@@H]2NC(=O)[C@H](C)NC(=O)[C@H](CCCNC(=N)N)NC(=O)[C@H](CCCCN)NC(=O)[C@H](CO)NC(=O)[C@H](CC(=O)O)NC(=O)[C@@H]3CSSC[C@H](NC(=O)[C@H](CCC(=O)O)NC(=O)[C@H](CC(C)C)NC(=O)CNC(=O)[C@H](CCC(=O)O)NC(=O)[C@H](CSSC[C@H](NC(=O)[C@@H](N)Cc4ccc(O)cc4)C(=O)N[C@@H](CCC(N)=O)C(=O)N[C@@H](CCCCN)C(=O)N[C@@H](Cc4ccccc4)C(=O)N[C@@H](CCSC)C(=O)N[C@@H](Cc4c[nH]c5ccccc45)C(=O)N[C@@H]([C@@H](C)O)C(=O)N3)NC2=O)C(=O)N[C@@H](CCCCN)C(=O)N[C@@H](CC(C)C)C(=O)N[C@@H](Cc2c[nH]c3ccccc23)C(=O)N1)C(N)=O` [compound 193], for which, where the note is “Table 11”, the Nav1.4/Nav1.7 was found to be 217 and the Nav1.5/Nav1.7 turned out to be 217.
Take `CC[C@H](C)[C@H](NC(=O)[C@H](Cc1ccc(O)cc1)NC(=O)[C@H](CCCCN)NC(=O)[C@H](CCCNC(=N)N)NC(=O)[C@@H]1CSSC[C@@H]2NC(=O)[C@H](C)NC(=O)[C@H](CCCNC(=N)N)NC(=O)[C@H](CCCCN)NC(=O)[C@H](CO)NC(=O)[C@H](CC(=O)O)NC(=O)[C@@H]3CSSC[C@H](NC(=O)[C@H](CCC(=O)O)NC(=O)[C@H](CC(C)C)NC(=O)CNC(=O)[C@H](CCC(=O)O)NC(=O)[C@H](CSSC[C@H](NC(=O)[C@@H](N)Cc4ccc(O)cc4)C(=O)N[C@@H](CCC(N)=O)C(=O)N[C@@H](CCCCN)C(=O)N[C@@H](Cc4c[nH]c5ccccc45)C(=O)N[C@@H](CCSC)C(=O)N[C@@H](Cc4c[nH]c5ccccc45)C(=O)N[C@@H]([C@@H](C)O)C(=O)N3)NC2=O)C(=O)N[C@@H](CCCCN)C(=O)N[C@@H](CC(C)C)C(=O)N[C@@H](Cc2cccc3ccccc23)C(=O)N1)C(N)=O` [compound 218]: for the setting “Table 11”, the Nav1.4/Nav1.7 is recorded as 434 and the Nav1.5/Nav1.7 was determined as 833.
In the same order, the values of `CSCC[C@@H]1NC(=O)[C@H](Cc2c[nH]c3ccccc23)NC(=O)[C@H](CCCCN)NC(=O)[C@H](CCC(N)=O)NC(=O)[C@@H](NC(=O)[C@@H](N)Cc2ccc(O)cc2)CSSC[C@@H]2NC(=O)[C@@H]3CSSC[C@@H](C(=O)N[C@@H](CCCNC(=N)N)C(=O)N[C@@H](CCCCN)C(=O)N[C@@H](Cc4ccc(O)cc4)C(=O)N[C@@H](Cc4ccc5ccccc5c4)C(N)=O)NC(=O)[C@H](Cc4c[nH]c5ccccc45)NC(=O)[C@H](CC(C)C)NC(=O)[C@H](CCCCN)NC(=O)[C@H](CSSC[C@H](NC(=O)[C@H]([C@@H](C)O)NC(=O)[C@H](Cc4c[nH]c5ccccc45)NC1=O)C(=O)N[C@@H](CC(=O)O)C(=O)N[C@@H](CO)C(=O)N[C@@H](CCCCN)C(=O)N[C@@H](CCCNC(=N)N)C(=O)N[C@@H](C)C(=O)N3)NC(=O)[C@H](CCC(=O)O)NC(=O)[C@H](CC(C)C)NC(=O)CNC(=O)[C@H](CCC(=O)O)NC2=O` [compound 233] are 265 and 433.
In the same order, the values of `CSCC[C@@H]1NC(=O)[C@H](Cc2c[nH]c3ccccc23)NC(=O)[C@H](CCCCN)NC(=O)[C@H](CCC(N)=O)NC(=O)[C@@H](NC(=O)[C@@H](N)Cc2ccc(O)cc2)CSSC[C@@H]2NC(=O)[C@@H]3CSSC[C@@H](C(=O)N[C@@H](CCCNC(=N)N)C(=O)N[C@@H](CCCCN)C(=O)N[C@@H](Cc4ccc(O)cc4)C(=O)N[C@@H](CC(C)C)C(N)=O)NC(=O)[C@H](Cc4c[nH]c5ccccc45)NC(=O)[C@H](CC(C)C)NC(=O)[C@H](CCCCN)NC(=O)[C@H](CSSC[C@H](NC(=O)[C@H]([C@@H](C)O)NC(=O)[C@H](Cc4c[nH]c5ccccc45)NC1=O)C(=O)N[C@@H](CC(=O)O)C(=O)N[C@@H](CO)C(=O)N[C@@H](CCCCN)C(=O)N[C@@H](CCCNC(=N)N)C(=O)N[C@@H](C)C(=O)N3)NC(=O)[C@H](CCC(=O)O)NC(=O)[C@H](CC(C)C)NC(=O)CNC(=O)[C@H](CCC(=O)O)NC2=O` [compound 238] are 241 and 2817.

Values taken from US10344060B2 (priority 2013, dated 2019).
